Assay results as given in patent publication US11684614B2, “Formulations of hydroxypyridonate actinide/lanthanide decorporation agents” (priority 2017, dated 2023).

How the values were obtained:
[1] = Stability in plasma; format: in vitro ADME
[2] = 28-day oral gavage study in Sprague Dawley rats (SRI No. M512-07); format: in vivo
[3] = target: T1, CYP1A2 (Homo sapiens, UniProt P05177); assay: CYP inhibition; format: in vitro ADME
T1 sequence (P05177 1-516): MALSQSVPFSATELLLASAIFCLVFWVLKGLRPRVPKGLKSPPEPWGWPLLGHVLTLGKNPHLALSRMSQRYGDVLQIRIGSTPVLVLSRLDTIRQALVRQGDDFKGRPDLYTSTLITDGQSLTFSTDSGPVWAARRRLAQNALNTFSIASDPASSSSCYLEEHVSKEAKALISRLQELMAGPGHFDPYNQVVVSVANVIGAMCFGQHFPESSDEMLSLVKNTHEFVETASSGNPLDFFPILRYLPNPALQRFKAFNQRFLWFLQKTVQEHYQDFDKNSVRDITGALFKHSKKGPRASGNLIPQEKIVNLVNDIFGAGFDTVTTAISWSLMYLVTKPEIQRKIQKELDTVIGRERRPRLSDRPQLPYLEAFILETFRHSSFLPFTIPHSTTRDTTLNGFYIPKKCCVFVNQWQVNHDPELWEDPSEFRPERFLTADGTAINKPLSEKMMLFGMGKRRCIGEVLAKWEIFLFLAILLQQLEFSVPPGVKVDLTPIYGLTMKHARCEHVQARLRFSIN

[4] = Stability in gastric fluid; format: in vitro ADME
[5] = Non-GLP 7-day repeat dose beagle dog study, safety findings (SRI No. B677-13); format: in vivo, beagle dogs
Source text: Clinical observations that were associated with test article administration included post-dose diarrhea and emesis. Specifically, dogs in the mid- and high-dose groups experienced slight or extreme diarrhea on Day 1 between 1 and 6 hr post-dose. Diarrhea was absent from the lowdose group. […] By Day 2, 8 of the 9 affected dogs were normal, with the exception of one highdose group female that had continued slight diarrhea. Slight to moderate emesis occurred <2 hr post-dose (and oftentimes <1 hr post-dose) in 1-3 dogs from each of the 3,4,3-L1(1,2-HOPO) treatment groups and in none of the vehicle control-treated dogs. Post-dose emesis appeared to be dose-dependent since it occurred in 0, 1, 2, and 3 dogs out of 12 dogs per group in control, low, mid, and high dose groups, respectively. Post-dose emesis is a common response to oral dose administration in dogs, and a single occurrence of it in the low dose group could be […] rather than test article-related and is not considered a dose-limiting event. Slight post-dose emesis in this one male dog was the only finding present in the 37.5 mg/kg lowdose treatment group.
No similar renal histopathology findings were found in any of the other on-study dogs. The observation of hemosiderin without fibrosis in the kidney sections from this one dog is consistent with the renal findings having developed within one to three days prior to the Day 15 necropsy. This dog also had corresponding small increases (1.8- and 1.3-fold, respectively) in the renal function markers BUN and CR on Day 15 relative to pre-test. The timing of the renal findings in this recovery group dog is surprising given the fact that 3,4,3-L1(1,2-HOPO) was administered only on Day 1. Therefore, it is unclear if these renal findings are related specifically to high-dose administration of 3,4,3-L1(1,2-HOPO). There were no toxicologically meaningful histopathology findings in any of the dogs on Day 2 or in any of the other dogs on Day 15. Similar renal findings were also absent from the non-GLP 7-day repeat dose dog study (SRI No. B677-13) where 2 dogs/sex received formulated material at higher doses for 4 days followed by equivalent doses for 3 days and then were sacrificed on Day 8.
An evaluation of the serum levels of iron, unsaturated iron binding capacity, total iron binding capacity, magnesium, and ferritin were included in the clinical pathology analysis during the dog safety studies because 3,4,3-L1(1,2-HOPO) is a potent metal chelator.

[6] = after treatment, 2 dogs/sex, no control group

## O=C(NCCCN(CCCCN(CCCNC(=O)c1cccc(=O)n1O)C(=O)c1cccc(=O)n1O)C(=O)c1cccc(=O)n1O)c1cccc(=O)n1O [3,4,3-L1(1,2-HOPO)]
[1]
  stability in plasma: stable
[2]; 28 days of oral gavage
  renal findings: no renal findings
[2]; oral gavage 7.7-76.9 mg/kg (10-102 μmol/kg) for 28 days
  soft stools or diarrhea: not observed
[3]
  inhibition of CYP1A2 activity: did not inhibit
[4]
  stability in gastric fluid: degraded slightly
[5]; 7-day repeat dose, sacrificed on Day 8
  renal findings: absent
[5]; [6]
  decrease in unsaturated iron binding capacity: 16-62%
  increase in serum total iron levels compared with pretest: ~2 fold
[5]; formulated capsules once daily for 7 days, 75.1, 150, or 300 mg/kg, ~1 hr post-dose
  emesis and diarrhea: dose dependent, transient emesis and diarrhea
